Test results from patent US10662225B2, “Backbone cyclized inhibitory peptides of myeloid differentiation factor 88 (MyD88)” (Yissum Research Development Company of the Hebrew …, priority 2016, dated 2020).
Numbered stars: 1 amine (or outer) side, 2 acyl side, 3 side chain; on linkers, the order of the positions; unused ones are H or OH. Bridge positions count the residues as written; N and C are the ends. Square brackets hold non-standard residues; d marks the D form. Peptide text beside a SMILES is read from it. CO = O=C([*:1])[*:2]; Nlys = NCCCCNCC(=O)O

Target: T1, MyD88 dimerization (Homo sapiens, UniProt Q99836)
T1 construct: constructs encoding HA-tagged full length MyD88 and Flag-tagged full length MyD88; expressed in transfected cells; host or cells: HEK293
Assay: Co-immunoprecipitation of Flag-MyD88 with HA-MyD88 in HEK293 cells
Assay type: cell-based
Conditions: HEK293, IL-1 stimulation; 4×4MyDI at 20, 2, 0.2 μM; Myr-4×4MyDI at 0.2 or 2000 nM
Procedure: FIG. 10. 4×4MyDI blocks MyD88 dimerization. HEK293 cells were transfected with two plasmids, one encoding HA-MyD88 and the other encoding FLAG-MyD88 and after 48 hours the cells were either untreated (cont) or treated with 20 μM of the linear MyDI peptide, the scrambled version of the linear MyDI peptide (SEQ ID NO: 5,), or the 4×4MyDI at 20, 2, or 0.2 μM. After 3 h of treatment, cells were stimulated with recombinant human IL-1 (20 ng/ml) for 30 min and then lysed. Whole cell lysates (WCL) were immunoprecipitated with anti-HA beads (Thermo-Scientific) for 30 min and proteins were eluted with glycine Ph 2.0, neutralized, and loaded on an acrylamide gel for analysis. Proteins were transferred to nitrocellulose and the amount of Flag-MyD88 that co-precipitated with HA-MyD88 was detected by immunoblotting (IB) with anti-Flag antibody.
FIGS. 14A and 14B. […] Proteins were transferred to nitrocellulose and the amount of FLAG-MyD88 that co-precipitated with HA-MyD88 was detected by immunoblotting (IB) with anti-FLAG antibody. […] Percent inhibition of co-immunoprecipitation was calculated by comparing densitometry of bands in the treated lanes to control. […]
TLR and IL-1 receptor signaling proceeds through a multimeric protein signaling complex (the “Myddosome”) that is initiated by MyD88 homodimerization. […] Immunoprecipitated protein was eluted and analyzed by immunoblot using an antibody to Flag. […]

T1 sequence (Q99836 whole entry): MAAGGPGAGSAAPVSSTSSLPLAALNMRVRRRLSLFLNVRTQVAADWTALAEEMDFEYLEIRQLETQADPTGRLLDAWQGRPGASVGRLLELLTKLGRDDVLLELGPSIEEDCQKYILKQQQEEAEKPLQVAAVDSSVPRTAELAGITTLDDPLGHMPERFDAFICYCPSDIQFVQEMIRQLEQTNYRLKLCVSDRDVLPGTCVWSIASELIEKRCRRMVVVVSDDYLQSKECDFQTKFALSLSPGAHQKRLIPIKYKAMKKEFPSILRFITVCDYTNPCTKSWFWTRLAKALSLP

CC(C)C[C@@H]1NC(=O)[C@H](C(C)C)NC(=O)[C@H](CC(=O)O)NC(=O)[C@H](CCCNC(=N)N)NC(=O)CN(C(=O)[C@@H](N)Cc2c[nH]c3ccccc23)CCCCNC(=O)NCCCCN(CC(=O)NCC(=O)N[C@H](C(N)=O)[C@@H](C)O)C1=O [4×4MyDI] (H-W[Nlys]RDVL[Nlys]GT-NH2; linker 2-7 via CO; N-terminus assumed)
MyD88 dimerization (Flag-MyD88 co-precipitated with HA-MyD88): dramatically reduces the dimerization
